Assay results reported in ChEMBL document CHEMBL1136423, “Phosphate ester serum albumin affinity tags greatly improve peptide half-life in vivo” (Bioorg Med Chem Lett, 2003).
Where a SMILES comes first, the peptide text is derived from it. Bridges are numbered along the chain shown (N, C = ends). The star is where a group is joined. X3 = O=C(CCCCCOP(=O)(O)OC1CCC(c2ccccc2)(c2ccccc2)CC1)*; X4 = O=C(CCC(=O)*)NS(=O)(=O)c1ccc2ccccc2c1; X2 = O=C(CCCCCOP(=O)(O)Oc1ccc2ccccc2c1)*; X1 = O=C(CCCCCOP(=O)(O)OCCCCCc1ccccc1)*

biological target: Albumin (Oryctolagus cuniculus) (UniProt P49065); experiment: Compound was measured for its retention time in rabbit serum albumin;where k`=tt-t0/t0; tt=retention time of compound and t0=retention time of DMSO
Sequence (P49065 whole entry, looked up): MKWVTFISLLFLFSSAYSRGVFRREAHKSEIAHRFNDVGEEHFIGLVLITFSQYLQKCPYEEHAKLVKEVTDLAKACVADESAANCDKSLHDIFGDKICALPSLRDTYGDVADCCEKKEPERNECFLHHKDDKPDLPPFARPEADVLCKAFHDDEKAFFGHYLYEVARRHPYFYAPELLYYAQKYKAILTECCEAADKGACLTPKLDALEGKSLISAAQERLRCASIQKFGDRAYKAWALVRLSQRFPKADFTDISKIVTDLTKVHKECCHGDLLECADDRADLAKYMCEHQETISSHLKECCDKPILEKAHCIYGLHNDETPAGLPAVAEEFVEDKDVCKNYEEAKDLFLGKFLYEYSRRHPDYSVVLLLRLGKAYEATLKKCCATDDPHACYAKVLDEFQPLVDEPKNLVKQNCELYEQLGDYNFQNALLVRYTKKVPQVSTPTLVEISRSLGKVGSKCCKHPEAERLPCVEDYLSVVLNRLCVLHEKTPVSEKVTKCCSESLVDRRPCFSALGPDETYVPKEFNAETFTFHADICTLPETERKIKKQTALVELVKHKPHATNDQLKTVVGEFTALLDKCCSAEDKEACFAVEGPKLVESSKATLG

Point of comparison: `CC[C@H](C)[C@@H]1NC(=O)[C@H](CCCN=C(N)N)NC(=O)[C@@H]2CCCN2C(=O)[C@H](CC(N)=O)NC(=O)[C@H](CC(=O)O)NC(=O)[C@@H](NC(=O)[C@H](CC(C)C)NC(=O)[C@H](C)NC(=O)CCC(=O)NS(=O)(=O)c2ccc3ccccc3c2)CSSC[C@@H](C(=O)N[C@@H](CCC(N)=O)C(=O)N[C@@H](Cc2ccccc2)C(=O)N[C@H](C(=O)N[C@@H](CCC(=O)O)C(=O)NCC(N)=O)C(C)C)NC(=O)[C@H](Cc2ccc(O)cc2)NC(=O)[C@H](Cc2c[nH]c3ccccc23)NC(=O)[C@H](CCCN=C(N)N)NC(=O)[C@H](CC(=O)O)NC1=O` (X4-ALCDNPRIDRWYCQFVEG-NH2; disulfide 3-13), “k'/k'+1” value 0.98. Against it:
- CC[C@H](C)[C@@H]1NC(=O)[C@H](CCCN=C(N)N)NC(=O)[C@@H]2CCCN2C(=O)[C@H](CC(N)=O)NC(=O)[C@H](CC(=O)O)NC(=O)[C@@H](NC(=O)[C@H](CC(C)C)NC(=O)[C@H](C)NC(C)=O)CSSC[C@@H](C(=O)N[C@@H](CCC(N)=O)C(=O)N[C@@H](Cc2ccccc2)C(=O)N[C@H](C(=O)N[C@@H](CCC(=O)O)C(=O)NCC(N)=O)C(C)C)NC(=O)[C@H](Cc2ccc(O)cc2)NC(=O)[C@H](Cc2c[nH]c3ccccc23)NC(=O)[C@H](CCCN=C(N)N)NC(=O)[C@H](CC(=O)O)NC1=O (Ac-ALCDNPRIDRWYCQFVEG-NH2; disulfide 3-13) — lower, 0.39
- CC[C@H](C)[C@@H]1NC(=O)[C@H](CCCN=C(N)N)NC(=O)[C@@H]2CCCN2C(=O)[C@H](CC(N)=O)NC(=O)[C@H](CC(=O)O)NC(=O)[C@@H](NC(=O)[C@H](CC(C)C)NC(=O)[C@H](C)NC(=O)CCCCCOP(=O)(O)OCCCCCc2ccccc2)CSSC[C@@H](C(=O)N[C@@H](CCC(N)=O)C(=O)N[C@@H](Cc2ccccc2)C(=O)N[C@H](C(=O)N[C@@H](CCC(=O)O)C(=O)NCC(N)=O)C(C)C)NC(=O)[C@H](Cc2ccc(O)cc2)NC(=O)[C@H](Cc2c[nH]c3ccccc23)NC(=O)[C@H](CCCN=C(N)N)NC(=O)[C@H](CC(=O)O)NC1=O (X1-ALCDNPRIDRWYCQFVEG-NH2; disulfide 3-13) — the same, 0.98
- CC[C@H](C)[C@@H]1NC(=O)[C@H](CCCN=C(N)N)NC(=O)[C@@H]2CCCN2C(=O)[C@H](CC(N)=O)NC(=O)[C@H](CC(=O)O)NC(=O)[C@@H](NC(=O)[C@H](CC(C)C)NC(=O)[C@H](C)NC(=O)CCCCCOP(=O)(O)Oc2ccc3ccccc3c2)CSSC[C@@H](C(=O)N[C@@H](CCC(N)=O)C(=O)N[C@@H](Cc2ccccc2)C(=O)N[C@H](C(=O)N[C@@H](CCC(=O)O)C(=O)NCC(N)=O)C(C)C)NC(=O)[C@H](Cc2ccc(O)cc2)NC(=O)[C@H](Cc2c[nH]c3ccccc23)NC(=O)[C@H](CCCN=C(N)N)NC(=O)[C@H](CC(=O)O)NC1=O (X2-ALCDNPRIDRWYCQFVEG-NH2; disulfide 3-13) — lower, 0.97
- CC[C@H](C)[C@@H]1NC(=O)[C@H](CCCN=C(N)N)NC(=O)[C@@H]2CCCN2C(=O)[C@H](CC(N)=O)NC(=O)[C@H](CC(=O)O)NC(=O)[C@@H](NC(=O)[C@H](CC(C)C)NC(=O)[C@H](C)NC(=O)CCCCCOP(=O)(O)OC2CCC(c3ccccc3)(c3ccccc3)CC2)CSSC[C@@H](C(=O)N[C@@H](CCC(N)=O)C(=O)N[C@@H](Cc2ccccc2)C(=O)N[C@H](C(=O)N[C@@H](CCC(=O)O)C(=O)NCC(N)=O)C(C)C)NC(=O)[C@H](Cc2ccc(O)cc2)NC(=O)[C@H](Cc2c[nH]c3ccccc23)NC(=O)[C@H](CCCN=C(N)N)NC(=O)[C@H](CC(=O)O)NC1=O (X3-ALCDNPRIDRWYCQFVEG-NH2; disulfide 3-13) — lower, 0.97
